Structures are written as SMILES. Calls of active or inactive are those of the source. The rule behind the calls is not given here.

The source of these data is PubChem BioAssay AID1259407 (Chemical Carcinogenesis Research Information System (CCRIS), 2018).

The test system of the data set is CCRIS mutagenicity, Ames/micronucleus/aberration tests. Nature of the data set: CCRIS mutagenicity studies.
[1] abbreviates: Test System: AMES SALMONELLA TYPHIMURIUM, Strain/Indicator: TA97, Metabolic Activation: NONE, Method: PREINCUBATION
Setting [2] is: Test System: AMES SALMONELLA TYPHIMURIUM, Strain/Indicator: TA98, Metabolic Activation: NONE, Method: PREINCUBATION
[3] abbreviates: Test System: AMES SALMONELLA TYPHIMURIUM, Strain/Indicator: TA100, Metabolic Activation: NONE, Method: PREINCUBATION
Setting [4] is: Test System: AMES SALMONELLA TYPHIMURIUM, Strain/Indicator: TA104, Metabolic Activation: NONE, Method: PREINCUBATION
The mark [5] stands for this setting: Test System: AMES SALMONELLA TYPHIMURIUM, Strain/Indicator: TA100, Metabolic Activation: NONE, Method: STANDARD PLATE.

Turning to `N[C@@H](CC(=O)O)C(=O)O`, the mutagenic call is, setting by setting: (End Point: In vivo micronucleus, Test System: Bone marrow erythrocytes, Species: Mouse, Strain/Sex: Crl:CD1 (ICR)/Male and female, Route: Oral) “inactive; negative”; under setting [1], “inactive; negative”; (Test System: AMES SALMONELLA TYPHIMURIUM, Strain/Indicator: TA97, Metabolic Activation: RAT, LIVER, S-9, AROCLOR 1254, Method: PREINCUBATION) “inactive; negative”; under setting [2], “inactive; negative”; (Test System: AMES SALMONELLA TYPHIMURIUM, Strain/Indicator: TA98, Metabolic Activation: RAT LIVER S-9, PHENOBARBITAL AND BETA-NAPHTHOFLAVONE, Method: PREINCUBATION) “inactive; negative”; under setting [3], “inactive; negative”. Also, the mutagenic call is “inactive; negative” (Test System: AMES SALMONELLA TYPHIMURIUM, Strain/Indicator: TA100, Metabolic Activation: RAT LIVER S-9, PHENOBARBITAL AND BETA-NAPHTHOFLAVONE, Method: PREINCUBATION); “inactive; negative” (Test System: AMES SALMONELLA TYPHIMURIUM, Strain/Indicator: TA102, Metabolic Activation: NONE, Method: PREINCUBATION); “inactive; negative” (Test System: AMES SALMONELLA TYPHIMURIUM, Strain/Indicator: TA102, Metabolic Activation: RAT, LIVER, S-9, AROCLOR 1254, Method: PREINCUBATION); “inactive; negative” (Test System: AMES SALMONELLA TYPHIMURIUM, Strain/Indicator: TA1535, Metabolic Activation: NONE, Method: PREINCUBATION); “inactive; negative” (Test System: AMES SALMONELLA TYPHIMURIUM, Strain/Indicator: TA1535, Metabolic Activation: RAT LIVER S-9, PHENOBARBITAL AND BETA-NAPHTHOFLAVONE, Method: PREINCUBATION); “inactive; negative” (Test System: AMES SALMONELLA TYPHIMURIUM, Strain/Indicator: TA1537, Metabolic Activation: NONE, Method: PREINCUBATION). In addition, the mutagenic call is “inactive; negative” (Test System: AMES SALMONELLA TYPHIMURIUM, Strain/Indicator: TA1537, Metabolic Activation: RAT LIVER S-9, PHENOBARBITAL AND BETA-NAPHTHOFLAVONE, Method: PREINCUBATION); “inactive; negative” (Test System: Ames Salmonella typhimurium, Strain/Indicator: TA98, Species: None, Method: Standard plate); “inactive; negative” (Test System: Ames Salmonella typhimurium, Strain/Indicator: TA98, Species: Rat, Liver, S-9, Aroclor 1254 (10%), Method: Standard plate); “inactive; negative” (Test System: Ames Salmonella typhimurium, Strain/Indicator: TA100, Species: None, Method: Standard plate); “inactive; negative” (Test System: Ames Salmonella typhimurium, Strain/Indicator: TA100, Species: Rat, Liver, S-9, Aroclor 1254 (10%), Method: Standard plate); “inactive; negative” (Test System: Ames Salmonella typhimurium, Strain/Indicator: TA1535, Species: None, Method: Standard plate). For the same compound, the mutagenic call (Test System: Ames Salmonella typhimurium, Strain/Indicator: TA1535, Species: Rat, Liver, S-9, Aroclor 1254 (10%), Method: Standard plate) is “inactive; negative”; the mutagenic call (Test System: Ames Salmonella typhimurium, Strain/Indicator: TA1537, Species: None, Method: Standard plate) was “inactive; negative”; the mutagenic call (Test System: Ames Salmonella typhimurium, Strain/Indicator: TA1537, Species: Rat, Liver, S-9, Aroclor 1254 (10%), Method: Standard plate) is “inactive; negative”; the mutagenic call (Test System: E. coli, Strain/Indicator: WP2 uvrA, Metabolic Activation: None, Method: Standard plate) was “inactive; negative”; the mutagenic call (Test System: E. coli, Strain/Indicator: WP2 uvrA, Metabolic Activation: Rat, Liver, S-9, Aroclor 1254 (10%), Method: Standard plate) is “inactive; negative”; the mutagenic call (Test System: E.COLI, Strain/Indicator: WP2UVRA/PKM101, Metabolic Activation: NONE, Method: PREINCUBATION) was “inactive; negative”. The mutagenic call (Test System: E.COLI, Strain/Indicator: WP2UVRA/PKM101, Metabolic Activation: RAT LIVER S-9, PHENOBARBITAL AND BETA-NAPHTHOFLAVONE, Method: PREINCUBATION) was “inactive; negative”.
Take `O=C(Cl)c1ccc(Cl)cc1Cl`: the mutagenic call is “inactive; negative” under setting [2]; “active; positive” (Test System: AMES SALMONELLA TYPHIMURIUM, Strain/Indicator: TA98, Metabolic Activation: RAT LIVER S-9, PCB, Method: PREINCUBATION); “inactive; negative” under setting [3]; “active; positive” (Test System: AMES SALMONELLA TYPHIMURIUM, Strain/Indicator: TA100, Metabolic Activation: RAT LIVER S-9, PCB, Method: PREINCUBATION); “inactive; negative” under setting [4]; “active; positive” (Test System: AMES SALMONELLA TYPHIMURIUM, Strain/Indicator: TA104, Metabolic Activation: RAT LIVER S-9, PCB, Method: PREINCUBATION). Also, the mutagenic call by setting is: (Test System: Ames Salmonella typhimurium, Strain/Indicator: TA98, Metabolic Activation: None, Method: Preincubation) “inactive; negative”; (Test System: Ames Salmonella typhimurium, Strain/Indicator: TA98, Metabolic Activation: Rat, Liver, S9, Sodium phenobarbital and 5,6-benzoflavone, Method: Preincubation) “inactive; negative”; (Test System: Ames Salmonella typhimurium, Strain/Indicator: TA100, Metabolic Activation: None, Method: Preincubation) “inactive; negative”; (Test System: Ames Salmonella typhimurium, Strain/Indicator: TA100, Metabolic Activation: Rat, Liver, S9, Sodium phenobarbital and 5,6-benzoflavone, Method: Preincubation) “inactive; negative”; (Test System: Ames Salmonella typhimurium, Strain/Indicator: TA1535, Metabolic Activation: None, Method: Preincubation) “inactive; negative”; (Test System: Ames Salmonella typhimurium, Strain/Indicator: TA1535, Metabolic Activation: Rat, Liver, S9, Sodium phenobarbital and 5,6-benzoflavone, Method: Preincubation) “inactive; negative”. Also, the mutagenic call was “inactive; negative” (Test System: Ames Salmonella typhimurium, Strain/Indicator: TA1537, Metabolic Activation: None, Method: Preincubation); “inactive; negative” (Test System: Ames Salmonella typhimurium, Strain/Indicator: TA1537, Metabolic Activation: Rat, Liver, S9, Sodium phenobarbital and 5,6-benzoflavone, Method: Preincubation); “inactive; negative” (Test System: E. coli, Strain/Indicator: WP2uvrA/pKM101, Metabolic Activation: None, Method: Preincubation); “inactive; negative” (Test System: E. coli, Strain/Indicator: WP2uvrA/pKM101, Metabolic Activation: Rat, Liver, S9, Sodium phenobarbital and 5,6-benzoflavone, Method: Preincubation); “inactive; negative” (Test System: E.COLI, Strain/Indicator: WP2 UVRA, Metabolic Activation: NONE, Method: PREINCUBATION); “inactive; negative” (Test System: E.COLI, Strain/Indicator: WP2 UVRA, Metabolic Activation: RAT LIVER S-9, PCB, Method: PREINCUBATION).
Turning to `O[C@H]1[C@H]2O[C@H]2c2c(ccc3ccccc23)[C@@H]1O`, the mutagenic call by setting is: under setting [1], “active; positive”; under setting [2], “active; positive”; under setting [3], “active; positive”; under setting [5], “active; positive”; under setting [4], “active; positive”; (Test System: CHINESE HAMSTER V-79, Strain/Indicator: V-79/6-THIOGUANINE, Metabolic Activation: NONE) “active; positive”.
As for `CC(C)C[C@H](NC(=O)COc1cc(Cl)c(Cl)cc1Cl)C(=O)O`, the mutagenic call was “inactive; negative” (Test System: AMES SALMONELLA TYPHIMURIUM, Strain/Indicator: TA97, Metabolic Activation: NONE, Method: STANDARD PLATE); “inactive; negative” (Test System: AMES SALMONELLA TYPHIMURIUM, Strain/Indicator: TA97, Metabolic Activation: RAT, LIVER, S-9, AROCLOR 1254, Method: STANDARD PLATE); “inactive; negative” (Test System: AMES SALMONELLA TYPHIMURIUM, Strain/Indicator: TA98, Metabolic Activation: NONE, Method: STANDARD PLATE); “inactive; negative” (Test System: AMES SALMONELLA TYPHIMURIUM, Strain/Indicator: TA98, Metabolic Activation: RAT, LIVER, S-9, AROCLOR 1254, Method: STANDARD PLATE); “inactive; negative” under setting [5]; “inactive; negative” (Test System: AMES SALMONELLA TYPHIMURIUM, Strain/Indicator: TA100, Metabolic Activation: RAT, LIVER, S-9, AROCLOR 1254, Method: STANDARD PLATE). Further, the mutagenic call (Test System: AMES SALMONELLA TYPHIMURIUM, Strain/Indicator: TA1535, Metabolic Activation: NONE, Method: STANDARD PLATE) is “inactive; negative”; the mutagenic call (Test System: AMES SALMONELLA TYPHIMURIUM, Strain/Indicator: TA1535, Metabolic Activation: RAT, LIVER, S-9, AROCLOR 1254, Method: STANDARD PLATE) is “inactive; negative”; the mutagenic call (Test System: AMES SALMONELLA TYPHIMURIUM, Strain/Indicator: TA1538, Metabolic Activation: NONE, Method: STANDARD PLATE) is “inactive; negative”; the mutagenic call (Test System: AMES SALMONELLA TYPHIMURIUM, Strain/Indicator: TA1538, Metabolic Activation: RAT, LIVER, S-9, AROCLOR 1254, Method: STANDARD PLATE) was “inactive; negative”.
